In the supplement of paper PMC11208160:
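Further: IS621 bridge recombinase in Escherichia coli cells against a fixed T5 target plasmid.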

Assay: recombinant UMI read abundance after kanamycin selection (control-corrected) (log10(CPM+1)); higher = more efficient recombination; extreme values may be limits of the assay; sequences stand for … in AGTGCAGAGAAAATCGGCCAGTTTTCTCTGCCTGCAGTCCGCATGCCGTGGGACCCCTTGGGTTCTAACCTGTTGCCTAGATTTATGCAGCGGACTGCCTTTCTCCCAAAGTGATAAACCGG…AGGTTGGTTTCACT; site = the 11-nt donor
In short: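 Values, expressed as log10(CPM+1), derive from recombinant UMI counts converted to CPM, averaged across replicates and scaled by control-derived factors. Plating was with IPTG (0.07 mM) plus kanamycin or unselected, two replicates each. The screen pooled donor and donor-binding-loop pairs for the IS621 bridge recombinase in Escherichia coli.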
For “TCCAATTCATGGACCGGTTTTCCCGGTAATCCGTATTTGCC (site TCCAATTCTGG)”, the “recombinant UMI read abundance (log10)” value was 0.
With “TCCAATTCATGGACCGGTTTTCCCGGTAATCCGTATTTGCC (site TCCAATTCTGT)” the “recombinant UMI read abundance (log10)” value was 0.
With “TCCAATTCATGGACCGGTTTTCCCGGTAATCCGTATTTGCC (site TCCAATTCTTG)” the “recombinant UMI read abundance (log10)” value was 0.
With “TCCAATTCATGGACCGGTTTTCCCGGTAATCCGTATTTGCC (site TCCACTTCTGG)” the “recombinant UMI read abundance (log10)” value was 0.
For “TCCAATTCATGGACCGGTTTTCCCGGTAATCCGTATTTGCC (site TCCAGTTCTGG)”, the “recombinant UMI read abundance (log10)” value was 0.
In the case of “TCCAATTCATGGACCGGTTTTCCCGGTAATCCGTATTTGCC (site TCCATTTCTGG)”, the “recombinant UMI read abundance (log10)” value is reported as 0.
In the case of “TCCAATTCATGGACCGGTTTTCCCGGTAATCCGTATTTGCC (site TCCCATTCTGG)”, the “recombinant UMI read abundance (log10)” value is reported as 0.
With “TCCAATTCATGGACCGGTTTTCCCGGTAATCCGTATTTGCC (site TCCGATTCTGG)” the “recombinant UMI read abundance (log10)” value was 0.
With “TCCAATTCATGGACCGGTTTTCCCGGTAATCCGTATTTGCC (site TCCTATTCTGG)” the “recombinant UMI read abundance (log10)” value was 0.
For “TCCAATTCATGGACCGGTTTTCCCGGTAATCCGTATTTGCC (site TCGAATTCTGG)”, the “recombinant UMI read abundance (log10)” value was 0.
For “TCCAATTCATGGACCGGTTTTCCCGGTAATCCGTATTTGCC (site TCTAATTCTGG)”, the “recombinant UMI read abundance (log10)” value was 0.
In the case of “TCCAATTCATGGACCGGTTTTCCCGGTAATCCGTATTTGCC (site TGCAATTCTGG)”, the “recombinant UMI read abundance (log10)” value is reported as 0.
In the case of “TCCAATTCATGGACCGGTTTTCCCGGTAATCCGTATTTGCC (site TTCAATTCTGG)”, the “recombinant UMI read abundance (log10)” value is reported as 0.
In the case of “TCCAATTCATGGACCGGTTTTCCCGGTAATCCGTATTTGTC (site TCCAATTCTGA)”, the “recombinant UMI read abundance (log10)” value is reported as 0.
In the case of “TCCAATTCATGGACCGGTTTTCCCGGTAATCCGTATTTGTC (site TCCAATTCTGC)”, the “recombinant UMI read abundance (log10)” value is reported as 0.
With “TCCAATTCATGGACCGGTTTTCCCGGTAATCCGTATTTGTC (site TCCAATTCTGG)” the “recombinant UMI read abundance (log10)” value was 0.
In the case of “TCCAATTCATGGACCGGTTTTCCCGGTAATCCGTATTTGTC (site TCCAATTCTGT)”, the “recombinant UMI read abundance (log10)” value is reported as 0.
In the case of “TCCACCGCATGGACCGGTTTTCCCGGTAATCCGTATTTGCC (site TCCACCGCTAG)”, the “recombinant UMI read abundance (log10)” value is reported as 0.0325.
In the case of “TCCACCGCATGGACCGGTTTTCCCGGTAATCCGTATTTGCC (site TCCACCGCTCG)”, the “recombinant UMI read abundance (log10)” value is reported as 0.0335.
In the case of “TCCACCGCATGGACCGGTTTTCCCGGTAATCCGTATTTGCC (site TCCACCGCTGG)”, the “recombinant UMI read abundance (log10)” value is reported as 0.
For “TCCACCGCATGGACCGGTTTTCCCGGTAATCCGTATTTGCC (site TCCACCGCTTG)”, the “recombinant UMI read abundance (log10)” value was 0.00442.
For “TCCAGTACATGGACCGGTTTTCCCGGTAATCCGTATTTGAG (site TCCAGTACTCT)”, the “recombinant UMI read abundance (log10)” value was 0.00906.
With “TCCATATCATGGACCGGTTTTCCCGGTAATCCGTATTTGTC (site ACCATATCTGA)” the “recombinant UMI read abundance (log10)” value was 0.
For “TCCATATCATGGACCGGTTTTCCCGGTAATCCGTATTTGTC (site CCCATATCTGA)”, the “recombinant UMI read abundance (log10)” value was 0.
For “TCCATATCATGGACCGGTTTTCCCGGTAATCCGTATTTGTC (site GCCATATCTGA)”, the “recombinant UMI read abundance (log10)” value was 0.
In the case of “TCCCACACATGGACCGGTTTTCCCGGTAATCCGTATTTGTA (site ACCCACACTTA)”, the “recombinant UMI read abundance (log10)” value is reported as 0.0202.
With “TCCCACACATGGACCGGTTTTCCCGGTAATCCGTATTTGTA (site CCCCACACTTA)” the “recombinant UMI read abundance (log10)” value was 0.0988.
With “TCCCACACATGGACCGGTTTTCCCGGTAATCCGTATTTGTA (site GCCCACACTTA)” the “recombinant UMI read abundance (log10)” value was 0.0195.
With “TCCCACACATGGACCGGTTTTCCCGGTAATCCGTATTTGTA (site TCCCACACTTA)” the “recombinant UMI read abundance (log10)” value was 0.42.
With “TCCCACTCATGGACCGGTTTTCCCGGTAATCCGTATTTGGG (site TCCCACTCTCC)” the “recombinant UMI read abundance (log10)” value was 0.0433.
In the case of “TCCCCAACATGGACCGGTTTTCCCGGTAATCCGTATTTGCT (site TCCCCAACTAG)”, the “recombinant UMI read abundance (log10)” value is reported as 0.417.
For “TCCCCTTCATGGACCGGTTTTCCCGGTAATCCGTATTTGAG (site TCCCCTTCTCT)”, the “recombinant UMI read abundance (log10)” value was 0.
In the case of “TCCCGCCCATGGACCGGTTTTCCCGGTAATCCGTATTTGGC (site TCCCGCCCTGC)”, the “recombinant UMI read abundance (log10)” value is reported as 0.
For “TCCGAGACATGGACCGGTTTTCCCGGTAATCCGTATTTGCG (site TCAGAGACTCG)”, the “recombinant UMI read abundance (log10)” value was 0.0174.
With “TCCGAGACATGGACCGGTTTTCCCGGTAATCCGTATTTGCG (site TCCGAGACTCG)” the “recombinant UMI read abundance (log10)” value was 0.0319.
For “TCCGAGACATGGACCGGTTTTCCCGGTAATCCGTATTTGCG (site TCGGAGACTCG)”, the “recombinant UMI read abundance (log10)” value was 0.0214.
For “TCCGAGACATGGACCGGTTTTCCCGGTAATCCGTATTTGCG (site TCTGAGACTCG)”, the “recombinant UMI read abundance (log10)” value was 0.0115.
With “TCCGCCGCATGGACCGGTTTTCCCGGTAATCCGTATTTGCG (site TCCACCGCTCG)” the “recombinant UMI read abundance (log10)” value was 0.
For “TCCGCCGCATGGACCGGTTTTCCCGGTAATCCGTATTTGCG (site TCCCCCGCTCG)”, the “recombinant UMI read abundance (log10)” value was 0.00514.
For “TCCGCCGCATGGACCGGTTTTCCCGGTAATCCGTATTTGCG (site TCCGCCGCTCG)”, the “recombinant UMI read abundance (log10)” value was 0.0179.
In the case of “TCCGCCGCATGGACCGGTTTTCCCGGTAATCCGTATTTGCG (site TCCTCCGCTCG)”, the “recombinant UMI read abundance (log10)” value is reported as 0.00863.
With “TCCGCTACATGGACCGGTTTTCCCGGTAATCCGTATTTGAT (site TCCGCTACTAT)” the “recombinant UMI read abundance (log10)” value was 0.00615.
In the case of “TCCGGGTCATGGACCGGTTTTCCCGGTAATCCGTATTTGTA (site TCCGGGTCTTA)”, the “recombinant UMI read abundance (log10)” value is reported as 0.413.
For “TCCTAATCATGGACCGGTTTTCCCGGTAATCCGTATTTGTC (site TCCTAATCTGA)”, the “recombinant UMI read abundance (log10)” value was 0.
In the case of “TCCTACCCATGGACCGGTTTTCCCGGTAATCCGTATTTGAG (site TCCTACCCTCT)”, the “recombinant UMI read abundance (log10)” value is reported as 0.0177.
For “TCCTAGCCATGGACCGGTTTTCCCGGTAATCCGTATTTGCC (site ACCTAGCCTGG)”, the “recombinant UMI read abundance (log10)” value was 0.
In the case of “TCCTAGCCATGGACCGGTTTTCCCGGTAATCCGTATTTGCC (site CCCTAGCCTGG)”, the “recombinant UMI read abundance (log10)” value is reported as 0.
For “TCCTAGCCATGGACCGGTTTTCCCGGTAATCCGTATTTGCC (site GCCTAGCCTGG)”, the “recombinant UMI read abundance (log10)” value was 0.221.
In the case of “TCCTAGCCATGGACCGGTTTTCCCGGTAATCCGTATTTGCC (site TCCTAGCCTGG)”, the “recombinant UMI read abundance (log10)” value is reported as 0.
In the case of “TCGACTCCATGGACCGGTTTTCCCGGTAATCCGTATTTGCC (site TCGACTCCTGG)”, the “recombinant UMI read abundance (log10)” value is reported as 0.
For “TCGAGCGCATGGACCGGTTTTCCCGGTAATCCGTATTTGCT (site TCGAGCGCTAG)”, the “recombinant UMI read abundance (log10)” value was 1.5.
In the case of “TCGAGGACATGGACCGGTTTTCCCGGTAATCCGTATTTGGC (site TCGAGGACTGC)”, the “recombinant UMI read abundance (log10)” value is reported as 0.
With “TCGAGTCCATGGACCGGTTTTCCCGGTAATCCGTATTTGGC (site TCGAGTCCTGC)” the “recombinant UMI read abundance (log10)” value was 0.
In the case of “TCGCAGCCATGGACCGGTTTTCCCGGTAATCCGTATTTGGA (site AAAGTCTCTCG)”, the “recombinant UMI read abundance (log10)” value is reported as 0.
With “TCGCATTCATGGACCGGTTTTCCCGGTAATCCGTATTTGTC (site TCGCATTCTGA)” the “recombinant UMI read abundance (log10)” value was 0.
For “TCGCCGCCATGGACCGGTTTTCCCGGTAATCCGTATTTGGG (site TCGCCGCCTCC)”, the “recombinant UMI read abundance (log10)” value was 0.00807.
For “TCGCCGGCATGGACCGGTTTTCCCGGTAATCCGTATTTGGC (site TAGCCGGCTGC)”, the “recombinant UMI read abundance (log10)” value was 0.
In the case of “TCGCCGGCATGGACCGGTTTTCCCGGTAATCCGTATTTGGC (site TCGCCGGCTGC)”, the “recombinant UMI read abundance (log10)” value is reported as 0.
In the case of “TCGCCGGCATGGACCGGTTTTCCCGGTAATCCGTATTTGGC (site TGGCCGGCTGC)”, the “recombinant UMI read abundance (log10)” value is reported as 0.
With “TCGCCGGCATGGACCGGTTTTCCCGGTAATCCGTATTTGGC (site TTGCCGGCTGC)” the “recombinant UMI read abundance (log10)” value was 0.
In the case of “TCGCTAGCATGGACCGGTTTTCCCGGTAATCCGTATTTGCC (site TCGCTAGCTGG)”, the “recombinant UMI read abundance (log10)” value is reported as 0.
With “TCGCTGTCATGGACCGGTTTTCCCGGTAATCCGTATTTGTG (site TCGCTGTCTCA)” the “recombinant UMI read abundance (log10)” value was 0.936.
In the case of “TCGGAGACATGGACCGGTTTTCCCGGTAATCCGTATTTGCG (site TCAGAGACTCG)”, the “recombinant UMI read abundance (log10)” value is reported as 1.72.
In the case of “TCGGAGACATGGACCGGTTTTCCCGGTAATCCGTATTTGCG (site TCCGAGACTCG)”, the “recombinant UMI read abundance (log10)” value is reported as 0.44.
With “TCGGAGACATGGACCGGTTTTCCCGGTAATCCGTATTTGCG (site TCGGAGACTCG)” the “recombinant UMI read abundance (log10)” value was 2.41.
With “TCGGAGACATGGACCGGTTTTCCCGGTAATCCGTATTTGCG (site TCTGAGACTCG)” the “recombinant UMI read abundance (log10)” value was 0.976.
With “TCGGCGGCATGGACCGGTTTTCCCGGTAATCCGTATTTGAG (site TCGGCGGCTCT)” the “recombinant UMI read abundance (log10)” value was 0.464.
For “TCGGGTACATGGACCGGTTTTCCCGGTAATCCGTATTTGAC (site TCGGGTACTGT)”, the “recombinant UMI read abundance (log10)” value was 0.
With “TCGTATTCATGGACCGGTTTTCCCGGTAATCCGTATTTGTT (site TCGTATTCTAA)” the “recombinant UMI read abundance (log10)” value was 1.24.
For “TCGTCTACATGGACCGGTTTTCCCGGTAATCCGTATTTGAT (site TCGTCTACTAT)”, the “recombinant UMI read abundance (log10)” value was 0.00771.
In the case of “TCGTGATCATGGACCGGTTTTCCCGGTAATCCGTATTTGGC (site TCGTGATCTGC)”, the “recombinant UMI read abundance (log10)” value is reported as 0.
With “TCGTTAACATGGACCGGTTTTCCCGGTAATCCGTATTTGTT (site TCGTTAACTAA)” the “recombinant UMI read abundance (log10)” value was 0.00894.
With “TCGTTCACATGGACCGGTTTTCCCGGTAATCCGTATTTGGA (site TCGTTCACTTC)” the “recombinant UMI read abundance (log10)” value was 0.0102.
In the case of “TCGTTCTCATGGACCGGTTTTCCCGGTAATCCGTATTTGGG (site TCGTTCTCTCC)”, the “recombinant UMI read abundance (log10)” value is reported as 0.00264.
With “TCTAAATCATGGACCGGTTTTCCCGGTAATCCGTATTTGTT (site TCTAAATCTAA)” the “recombinant UMI read abundance (log10)” value was 0.
